In publication PMC9097415, “Nanomolar EP4 receptor potency and expression of eicosanoid-related enzymes in normal appearing colonic mucosa from patients with colorectal neoplasia” (BMC Gastroenterology, 2022):
Where “and” joins values, the source holds several entries; their conditions need not be identical. Equal values may be shown once.

Columns and labels:
[1] = target: T1, EP1 receptor (Homo sapiens, UniProt P34995); assay: EP1 agonist stimulation of colonic mucosa biopsies in MUAS-chambers, SCC; format: cell-based; conditions: biopsies exposed to the selective EP1 agonist
T1 construct: Four biopsies were mounted and oxygenated in MUAS-chambers after extraction; from tissue; host or cells: human colonic mucosa biopsies mounted in MUAS (modified Ussing) chambers
T1 sequence (P34995 1-402): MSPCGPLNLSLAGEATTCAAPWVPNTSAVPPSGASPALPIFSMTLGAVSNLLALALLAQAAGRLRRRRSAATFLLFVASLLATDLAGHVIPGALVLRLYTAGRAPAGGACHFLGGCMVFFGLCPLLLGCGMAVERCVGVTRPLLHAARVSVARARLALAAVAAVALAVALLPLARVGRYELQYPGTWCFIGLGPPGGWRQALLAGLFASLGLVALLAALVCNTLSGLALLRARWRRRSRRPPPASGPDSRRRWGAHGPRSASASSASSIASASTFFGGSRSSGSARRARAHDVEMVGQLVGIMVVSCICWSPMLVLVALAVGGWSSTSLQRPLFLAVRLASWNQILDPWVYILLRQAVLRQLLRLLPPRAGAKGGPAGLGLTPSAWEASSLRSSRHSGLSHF
Experimental: (§1) Four biopsies were mounted and oxygenated in MUAS-chambers after extraction as described by Larsen et al. generally within 45 min after extraction. Biopsies were bathed on both sides with 10 mL Ringer, supplemented with 5.5 mM D-glucose. Temperature was maintained at 37.2 °C by water jackets. An automated voltage-clamp device continuously recorded SCC and slope conductance.
(§2) Experiments began after a stable basal SCC was obtained within 10 min after proper mounting. All experiments were initiated by addition of amiloride (20 µM, mucosal side) to inhibit electrogenic sodium absorption mediated through epithelial sodium channels and followed by theophylline (400 µM, serosal side) to inhibit phosphodiesterase-dependent cyclic adenosine monophosphate (cAMP) degradation. Finally, to eliminate endogenous prostaglandin synthesis, indomethacin (13 µM, serosal side) was added and incubated for 40 min.
Biopsies from 47 patients were treated with PGE2 and selective EP receptor agonists to investigate receptor function, Table 1. A single agonist was added in increasing concentrations (1 nM to 5 µM, serosal side) to each MUAS-chamber. […]
To assess agonists and receptors, data obtained from dose–response curves were analyzed with either a single-Michaelis–Menten model (srm) or a two-Michaelis–Menten receptor/site model (trm) using Sigmaplot 13.0 for Windows, Systat Software Inc. (USA/Canada). […]

[2] = target: T2, EP4 receptor (Homo sapiens, UniProt P35408); assay: EP4 antagonist GW-X added before PGE2 dose-response in MUAS-chambers, agonist-based Cheng-Prusoff analysis; format: cell-based
T2 construct: Four biopsies were mounted and oxygenated in MUAS-chambers after extraction; from tissue; host or cells: human colonic mucosa biopsies mounted in MUAS (modified Ussing) chambers
T2 sequence (P35408 whole entry): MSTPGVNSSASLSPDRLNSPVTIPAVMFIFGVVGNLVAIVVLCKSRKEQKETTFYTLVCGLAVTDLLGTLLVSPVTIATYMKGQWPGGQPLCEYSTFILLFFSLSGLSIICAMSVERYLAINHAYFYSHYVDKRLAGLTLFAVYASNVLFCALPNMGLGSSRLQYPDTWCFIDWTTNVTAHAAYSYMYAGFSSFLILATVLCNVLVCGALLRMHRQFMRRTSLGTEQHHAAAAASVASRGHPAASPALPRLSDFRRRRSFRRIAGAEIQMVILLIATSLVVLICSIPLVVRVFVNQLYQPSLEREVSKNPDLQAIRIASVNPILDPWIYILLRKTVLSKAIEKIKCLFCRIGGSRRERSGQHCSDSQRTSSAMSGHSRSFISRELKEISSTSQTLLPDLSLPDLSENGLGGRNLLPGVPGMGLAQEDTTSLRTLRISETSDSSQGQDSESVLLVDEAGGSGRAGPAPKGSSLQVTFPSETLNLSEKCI
Experimental: as §1, §2
Biopsies from 26 patients were treated with selective EP receptor antagonists, Table 1. A combination of 3 antagonists was added to each MUAS chamber (serosal side), to single out and investigate the remaining non-inhibited EP receptor subtype. After antagonist incubation (45 min), cumulative doses of PGE2 were added (3 nM to 1 µM, serosal side). The EP4 receptor was also examined with another selective antagonist, GW627368X (GW-X, 5 µM, serosal side).
(§3) To assess agonists and receptors, data obtained from dose–response curves were analyzed with either a single-Michaelis–Menten model (srm) or a two-Michaelis–Menten receptor/site model (trm) using Sigmaplot 13.0 for Windows, Systat Software Inc. (USA/Canada). Outcome data were maximum SCC responses (RMax) and EC50 of these analyses.
From 2 agonist dose-response curves, one determined in the absence of a competitive antagonist, the other in its presence at only a single concentration, it is possible to calculate the antagonist apparent half inhibition dissociation constant at equilibrium, […]. […]

[3] = system: EP receptors (EP1-4); assay: PGE2 stimulation of colonic mucosa biopsies in MUAS-chambers, short circuit current (SCC); format: cell-based, human
Experimental: as §1, §2
(§4) Biopsies from 47 patients were treated with PGE2 and selective EP receptor agonists to investigate receptor function, Table 1. A single agonist was added in increasing concentrations (1 nM to 5 µM, serosal side) to each MUAS-chamber. The final agonist concentration step was followed by the addition of 5 µM PGE2, to elicit a maximal PGE2-induced response.
as §3

[4] = target: T2, EP4 receptor; assay: EP4 agonist stimulation of colonic mucosa biopsies in MUAS-chambers, SCC; format: cell-based
Experimental: as §1, §2, §4, §3

CCCC[C@H](C)C[C@H](O)/C=C/[C@H]1[C@H](O)CC(=O)[C@@H]1CC(=O)C1CCC(C(=O)O)CC1 (some centres unmarked) [EP1 agonist, ONO-DI004]
Biopsies showing no increase in SCC [1]: 4 out of 22

CCOc1c2c(c(OCC)c3ccccc13)C(=O)N(c1ccc(CC(=O)NS(=O)(=O)c3ccccc3)cc1)C2 [GW-X, GW627368X]
Mean EC50 ratio (agonist EC50 with / without antagonist) ([2]; GW-X 5 µM, 4 protocols): approximately 25
IC50 ([2]; against PGE2 (and TCS 2510), GW-X 5 µM, from EC50 ratios, 14 individual experiments): ~210 nM and 210 nM
Type of inhibition of PGE2 ([2]; low nanomolar PGE2 concentration range, rightward shift of the dose-response curve): competitive inhibition

CCCCC[C@H](O)/C=C/[C@H]1[C@H](O)CC(=O)[C@@H]1C/C=C\CCCC(=O)O [PGE2, Prostaglandin E2]
PGE2 concentration at which SCC increased (as low as) ([3]; both patient groups (CRN and CTRL), serosal side): ≤ 1 nM
EP4 receptor potency of PGE2 ([3]; normal appearing colonic mucosa): low nanomolar range
RMax rank among agonists ([3]; srm and trm): highest
Average separation factor between EC50s of high and low affinity receptors ([3]; two receptor model (trm)): 64

TCS 2510 [EP4 agonist]
RMax as share of the PGE2 response ([4]; CRN patients): ~75%
RMax as share of the PGE2 response ([4]; CTRL patients): approximately 50%
Sensitivity / potency for SCC increase ([4]; similar sensitivity to PGE2): high potency in the low nanomolar range
EC50 in CRN patients compared to CTRLs ([4]; single receptor model (srm)): higher
Average separation factor between EC50s of high and low affinity receptors ([4]; two receptor model (trm)): 15
RMax of low affinity receptors in CRN patients ([4]; two receptor model (trm)): significantly increased
